“And” between values parts separate entries of the source, which are not always exact repeats. Identical values can stand only once.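 The compound was tested at five concentrations on cells cultured in 96-well plates, with a 48-hour exposure period. GI50 = concentration required for 50% inhibition of growth. TGI: total growth inhibition.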
Tests used:
Assay in all cases: inhibition of tumour cell growth, NCI panel, 48 h
[1] = test system: IGROV1 ovarian
[2] = test system: BT-549 breast
[3] = test system: KM12 colon
[4] = test system: TK-10 renal
[5] = test system: UO-31 renal
[6] = test system: NCI-H460 lung
[7] = test system: SK-OV-3 ovarian
[8] = test system: SF-295 CNS
[9] = test system: SF-268 CNS
[10] = test system: MCF7 breast

SMILES	GI50 [1]	TGI [1]	GI50 [2]	TGI [2]	GI50 [3]	TGI [3]	GI50 [4]	TGI [4]	GI50 [5]	TGI [5]	GI50 [6]	TGI [6]	GI50 [7]	TGI [7]	GI50 [8]	TGI [8]	GI50 [9]	TGI [9]	GI50 [10]	TGI [10]
CCN(CC)c1sc(N(CC)CC)c2c1SSSSS2	0.715 µM	2.77 µM	2060 nM	4.8 µM	1.68 µM	3.55 µM	0.765 µM	1.88 µM	867 nM	2.88 µM	2480 nM	6.02 µM	3.13 µM	6.98 µM	2090 nM	4.04 µM	1960 nM	4.53 µM	1080 nM	–
CCC1(O)C(=O)OCc2c1cc1n(c2=O)Cc2cc3ccc(C=O)cc3nc2-1 (centres undefined)	5.11 µM	20 µM and 50.7 µM	4560 nM	29.8 µM and 59.6 µM	4.83 µM	29.7 µM and > 100 µM	20.8 µM	50 µM and > 100 µM	1080 nM	5.14 µM and 7.98 µM	301 nM	6.59 µM and 26.4 µM	7.45 µM	50 µM and 52.1 µM	2070 nM	50 µM and 52.6 µM	376 nM	50 µM and 40 µM	187 nM	50 µM and 10.6 µM
CCN(CC)CCCC(C)Nc1c(C)cnc2cc(Cl)c(C)cc12 (centres undefined)	25.9 µM	74.7 µM	12900 nM	28.7 µM	13.8 µM	28.6 µM	13.9 µM	28.4 µM	17500 nM	> 78.5 µM	14100 nM	32.3 µM	23.2 µM	> 58 µM	11300 nM	28.1 µM	15300 nM	33.3 µM	16200 nM	35.3 µM
COc1ccc(OC)c(/C=C/C(=O)N/N=C/c2ccc(Cl)cc2)c1	0.123 µM	> 79.3 µM	1170 nM	> 100 µM	0.0466 µM	> 29.1 µM	0.383 µM	> 100 µM	3370 nM	> 100 µM	70.4 nM	> 37.1 µM	0.0928 µM	9.81 µM	70.1 nM	> 25.4 µM	235 nM	> 100 µM	52.9 nM	> 57 µM
CCCCN=C(N)c1ccc(OCCSCCOc2ccc(C(N)=NCCCC)cc2)cc1	16.4 µM	> 100 µM	1970 nM	13.3 µM	3.62 µM	19.9 µM	66.6 µM	> 100 µM	> 100000 nM	> 100 µM	3170 nM	> 100 µM	2.54 µM	> 100 µM	2730 nM	53.8 µM	5320 nM	> 100 µM	3340 nM	> 100 µM
CCN1C(=O)CNc2ncc(-c3ccc(-c4ncn[nH]4)nc3C)nc21	0.045 µM	0.606 µM	71.6 nM	0.695 µM	0.193 µM	11.3 µM	0.0833 µM	1.36 µM	24.8 nM	0.599 µM	118 nM	11.3 µM	0.102 µM	0.617 µM	105 nM	0.679 µM	235 nM	10.2 µM	51 nM	10.7 µM
CN(C)CCNC(=O)c1cccc(C(=O)Nc2ccccc2)c1[N+](=O)[O-]	–	> 100 µM	–	> 100 µM	–	> 100 µM	–	> 100 µM	–	> 100 µM	–	> 100 µM	–	> 100 µM	–	> 100 µM	–	> 100 µM	–	> 100 µM
COc1ccc2c(c1)C=C([N+](=O)[O-])C(C1OC(C)(C)OC1C1COC(C)(C)O1)O2 (centres undefined)	–	31.7 µM	–	12.6 µM	–	4.31 µM	–	32.4 µM	–	26.3 µM	–	13.6 µM	–	24.2 µM	–	22.2 µM	–	13.5 µM	–	9.12 µM
CC1CN1CC(O)C(O)CN1CC1C (centres undefined)	4.09 µM	42.2 µM	6430 nM	87.1 µM	7.37 µM	23 µM	7.7 µM	65.7 µM	932 nM	10.9 µM	319 nM	13 µM	6.11 µM	> 100 µM	494 nM	> 33.4 µM	716 nM	> 53.5 µM	427 nM	36.6 µM
NCCCC[C@@H]1NC(=O)[C@H]2CCCN2C(=O)[C@H](Cc2ccccc2)NC(=O)[C@H](Cc2ccccc2)CNC1=O	> 100 µM	> 100 µM	> 100000 nM	> 100 µM	> 100 µM	> 100 µM	> 100 µM	> 100 µM	> 100000 nM	> 100 µM	> 100000 nM	> 100 µM	> 100 µM	> 100 µM	> 100000 nM	> 100 µM	> 100000 nM	> 100 µM	> 100000 nM	> 100 µM
